The values below come from ChEMBL document CHEMBL1126037, “4'-modified analogues of aristeromycin and neplanocin A: synthesis and inhibitory activity toward S-adenosyl-L-homocysteine hydrolase” (J Med Chem, 1992).

Test [1] deals with Adenosylhomocysteinase (Bos taurus). The test can be described thus: Inhibitory activity against bovine liver S-adenosyl-L-homocysteine hydrolase (AdoHcy); c = Inactive up to 100 uM.
The test system is the same in test [2]. Kind of test: Kinetic constant against bovine liver S-adenosyl-L-homocysteine hydrolase (AdoHcy); c = Inactive up to 100 uM.
For test [3] the test system is unchanged.
Test [4] has as its target Adenosylhomocysteinase (Homo sapiens) (UniProt P23526). The note with it: Bos taurus.
Description: Kinetic constant against bovine liver S-adenosyl-L-homocysteine hydrolase (AdoHcy); reversibleinhibitor
For test [5] the target is unchanged. The note with it: Bos taurus. The source holds these as a separate data set.

The source made the active and inactive calls. The rule behind the calls is not given here.

Adenosylhomocysteinase (Homo sapiens), sequence (P23526 2-432 limits assumed): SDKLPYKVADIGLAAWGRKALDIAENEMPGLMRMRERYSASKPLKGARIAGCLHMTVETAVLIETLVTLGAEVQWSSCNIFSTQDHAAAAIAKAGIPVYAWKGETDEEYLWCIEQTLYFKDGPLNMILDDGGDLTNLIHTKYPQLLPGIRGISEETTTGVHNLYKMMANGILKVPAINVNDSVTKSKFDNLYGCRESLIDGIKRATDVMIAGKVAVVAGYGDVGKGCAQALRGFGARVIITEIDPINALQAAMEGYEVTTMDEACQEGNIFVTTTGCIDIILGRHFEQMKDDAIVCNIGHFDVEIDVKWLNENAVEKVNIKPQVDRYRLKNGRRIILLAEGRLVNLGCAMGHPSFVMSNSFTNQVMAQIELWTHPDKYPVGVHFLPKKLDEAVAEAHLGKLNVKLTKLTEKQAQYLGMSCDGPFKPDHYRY

On to `CCC1=C[C@@H](n2cnc3c(N)ncnc32)[C@H](O)[C@@H]1O`, for which the Ki result in test [1] is “Inactive”. Besides, the k2 result in test [2] was “inactive”.

`C[C@H]1C[C@@H](n2cnc3c(N)ncnc32)[C@H](O)[C@@H]1O` had a k2 in test [3] of 0.039 min⁻¹.

With `CC[C@H]1C[C@@H](n2cnc3c(N)ncnc32)[C@H](O)[C@@H]1O`, the k2 in test [3] is 0.083 min⁻¹.

In test [3], `Nc1ncnc2c1ncn2[C@@H]1CC[C@@H](O)[C@H]1O` returned a k2 of 0.109 min⁻¹.

On to `Nc1ncnc2c1ncn2[C@@H]1C[C@H](CO)[C@@H](O)[C@H]1O`, for which, in test [4], the k2 entry is given as “Reversible inhibition”.

Compound `Nc1ncnc2c1ncn2[C@@H]1C[C@H](c2ccccc2)[C@@H](O)[C@H]1O` gave a k2 in test [3] of 0.01 min⁻¹.

`Nc1ncnc2c1ncn2[C@@H]1C=C(CO)[C@@H](O)[C@H]1O` displayed a k2 in test [5] of 1.98 min⁻¹.

The compound `C[C@@H]1C[C@@H](n2cnc3c(N)ncnc32)[C@H](O)[C@@H]1O` registered a k2 in test [3] of 0.025 min⁻¹.

With `CC1=C[C@@H](n2cnc3c(N)ncnc32)[C@H](O)[C@@H]1O`, the k2 in test [3] was 0.09 min⁻¹.

In test [3], `C=C[C@H]1C[C@@H](n2cnc3c(N)ncnc32)[C@H](O)[C@@H]1O` gave a k2 of 0.053 min⁻¹.

Consider `Nc1ncnc2c1ncn2[C@@H]1C=C[C@@H](O)[C@H]1O`, for which the k2 in test [3] worked out at 0.043 min⁻¹.
